Assay results published in publication PMC8509398, “Proteolytic Cleavage of Bioactive Peptides and Protease-Activated Receptors in Acute and Post-Colitis” (International Journal of Molecular Sciences, 2021).

Key:
Settings in all cases: 25 nM protease, 10 µM peptide
[1] = target: trypsin-1 (Homo sapiens, UniProt P07477); experiment: Cleavage of peptides by purified trypsin-1, MALDI-TOF/TOF
Source text: (§1) Trypsin-like proteases included in the experiments are trypsin-1, -2 and -3, tryptase (Enzo LifeSciences), thrombin (Sigma-Aldrich) and cathepsin G (Sigma-Aldrich). Trypsin-1, -2 and -3 were produced as described by Koistinen et al. and Wu et al.. Two elastase-like enzymes, neutrophil elastase (Enzo LifeSciences, Farmingdale, NY, USA) and pancreatic elastase I (Sigma-Aldrich) were included as well. All enzymes were from human origin except for pancreatic elastase from porcine pancreas.
(§2) Reaction mixtures with purified enzymes were compiled in an identical way. Each mixture contained an equimolar concentration of protease (25 nM based on) and 10 µM peptide of interest and was incubated for 2, 5, 10 and 30 min at 37 °C. Substance P was added as the standard peptide except for the reaction mixtures with substance P or bradykinin as the peptide of interest, where angiotensin II (Bachem) was added.
(§3) The TFA mixtures were thawed on ice and desalted using C18 zip-tips (Merck Millipore®, Burlington, MA, USA) with a capacity of 5 µg protein. Retained peptide fragments were eluted directly on the MALDI target plate. Next, 0.5 µL of a 2.5 mg/mL α-cyano-4-hydroxycinnamic acid (Sigma-Aldrich) matrix solution (in 70% acetonitrile, 0.1% TFA) was spotted on top of the sample. A 6-Peptide mixture Kit (AB Sciex, Framingham, MA, USA) containing bradykinin (2–9), angiotensin I, glu1-fibrinopeptide, ACTH (1–17), ACTH (18–39) and ACTH (7–38) was diluted with matrix and spotted on the plate as well.
(§4) MS and MS/MS data for peptide fragment identification were obtained with a MALDI-TOF/TOF instrument (4800 MALDI TOF/TOF™, Applied Biosystems, Waltham, MA, USA) and instrument parameters were set using 4000 Series Explorer™ software. MS spectra were recorded in positive reflector mode in a mass range from 500 to 4000 Da and laser intensity of 4500–4800 Hz. The spectra were calibrated using the calibration mixture mentioned above to a mass tolerance of 0.1 Da. MS/MS spectra were recorded with high-energy collision-induced dissociation and the laser intensity was increased by 10%. Precursor mass m/z 1570.65 (Glu1-Fibrinopeptide from the calibration mixture) was used to calibrate the MS/MS spectra to a mass tolerance of 0.1 Da.
(§5) MS and MS/MS spectra were processed using DataExplorer™ software and the obtained output files were uploaded in the MS-PEP data analyzer (https://bioit.shinyapps.io/PARs/ accessed 10/08/2020) for peptide fragment identification. Identified fragments were confirmed using the MS/MS spectra and mMass 5.5.0 by Martin Strohalm. The relative intensities of the fragments were calculated as the ratio of the intensity of the peak of interest to the intensity of the peak of the standard peptide.

[2] = target: trypsin-2 (Homo sapiens, UniProt P07478); experiment: Cleavage of peptides by purified trypsin-2, MALDI-TOF/TOF
Source text: as §1, §2, §3, §4, §5

[3] = target: T1, trypsin-3 (Homo sapiens, UniProt P35030); experiment: Cleavage of peptides by purified trypsin-3, MALDI-TOF/TOF
T1 sequence (P35030 1-304): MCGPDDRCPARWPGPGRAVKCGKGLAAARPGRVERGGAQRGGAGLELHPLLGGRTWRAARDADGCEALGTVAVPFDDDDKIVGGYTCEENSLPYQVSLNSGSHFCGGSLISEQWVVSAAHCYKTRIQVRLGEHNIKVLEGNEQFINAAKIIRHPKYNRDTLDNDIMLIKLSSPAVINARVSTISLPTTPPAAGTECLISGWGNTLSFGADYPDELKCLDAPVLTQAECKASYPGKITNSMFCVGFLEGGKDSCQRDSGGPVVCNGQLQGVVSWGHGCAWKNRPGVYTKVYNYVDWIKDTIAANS
Source text: as §1, §2, §3, §4, §5

[4] = target: thrombin (Homo sapiens, UniProt P00734); experiment: Cleavage of peptides by purified thrombin, MALDI-TOF/TOF
Source text: as §1, §2, §3, §4, §5

[5] = target: T2, cathepsin G (Homo sapiens, UniProt P08311); experiment: Cleavage of peptides by purified cathepsin G, MALDI-TOF/TOF
T2 sequence (P08311 21-255): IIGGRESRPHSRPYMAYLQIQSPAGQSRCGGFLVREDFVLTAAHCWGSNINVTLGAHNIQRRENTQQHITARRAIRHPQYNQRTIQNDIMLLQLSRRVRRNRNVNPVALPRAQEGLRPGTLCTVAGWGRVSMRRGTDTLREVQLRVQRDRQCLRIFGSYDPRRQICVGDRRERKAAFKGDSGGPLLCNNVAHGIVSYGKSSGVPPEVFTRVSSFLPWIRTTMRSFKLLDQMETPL
Source text: as §1
(§6) Reaction mixtures with purified enzymes were compiled in an identical way. […] Substance P was added as the standard peptide except for the reaction mixtures with substance P or bradykinin as the peptide of interest, where angiotensin II (Bachem) was added.
as §3
as §4, with “10%.” for “10%. Precursor mass m/z 1570.65 (Glu1-Fibrinopeptide from the calibration mixture) was used to calibrate the MS/MS spectra to a mass tolerance of 0.1 Da.”
(§7) Identified fragments were confirmed using the MS/MS spectra and mMass 5.5.0 by Martin Strohalm. The relative intensities of the fragments were calculated as the ratio of the intensity of the peak of interest to the intensity of the peak of the standard peptide.

[6] = target: T3, neutrophil elastase (Homo sapiens, UniProt P08246); experiment: Cleavage of peptides by purified neutrophil elastase, MALDI-TOF/TOF
T3 sequence (P08246 30-267): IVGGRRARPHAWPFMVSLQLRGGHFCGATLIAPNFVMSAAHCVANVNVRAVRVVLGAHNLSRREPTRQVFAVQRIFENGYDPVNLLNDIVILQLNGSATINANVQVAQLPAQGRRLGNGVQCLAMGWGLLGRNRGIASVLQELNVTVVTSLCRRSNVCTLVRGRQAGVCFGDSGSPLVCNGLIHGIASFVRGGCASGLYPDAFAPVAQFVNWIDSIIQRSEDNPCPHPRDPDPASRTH
Source text: as §1, §6, §3
as §4, with “10%.” for “10%. Precursor mass m/z 1570.65 (Glu1-Fibrinopeptide from the calibration mixture) was used to calibrate the MS/MS spectra to a mass tolerance of 0.1 Da.”
as §7

[7] = target: pancreatic elastase I (Sus scrofa, UniProt P00772); experiment: Cleavage of peptides by purified pancreatic elastase, MALDI-TOF/TOF
Source text: as §1, §6, §3
as §4, with “10%.” for “10%. Precursor mass m/z 1570.65 (Glu1-Fibrinopeptide from the calibration mixture) was used to calibrate the MS/MS spectra to a mass tolerance of 0.1 Da.”
as §7

[8] = 37 °C, 2, 5, 10 and 30 min, stopped with 2% TFA
[9] = 37 °C, time points 2, 5, 10, 30 min

trypsin-2, sequence (P07478 24-247): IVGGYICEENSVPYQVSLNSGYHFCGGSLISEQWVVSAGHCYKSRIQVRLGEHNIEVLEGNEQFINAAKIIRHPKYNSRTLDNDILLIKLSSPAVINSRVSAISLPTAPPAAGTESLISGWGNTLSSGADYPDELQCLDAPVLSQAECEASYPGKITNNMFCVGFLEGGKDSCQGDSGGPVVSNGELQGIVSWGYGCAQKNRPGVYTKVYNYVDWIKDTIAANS
pancreatic elastase I, sequence (P00772 27-266): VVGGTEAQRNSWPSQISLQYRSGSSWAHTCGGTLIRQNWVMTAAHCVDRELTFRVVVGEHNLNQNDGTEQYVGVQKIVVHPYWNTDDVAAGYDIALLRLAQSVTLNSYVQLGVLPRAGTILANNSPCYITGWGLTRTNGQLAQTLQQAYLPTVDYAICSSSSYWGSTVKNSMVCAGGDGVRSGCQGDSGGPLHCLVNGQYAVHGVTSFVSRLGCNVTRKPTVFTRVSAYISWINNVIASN

SMILES: CC[C@H](C)[C@H](NC(=O)[C@H](C)NC(=O)[C@H](CC(N)=O)NC(=O)[C@H](CCCCN)NC(=O)[C@H](Cc1ccccc1)NC(=O)[C@H](CC(C)C)NC(=O)[C@@H](NC(=O)[C@@H](NC(=O)[C@H](CC(C)C)NC(=O)[C@@H]1CCCN1C(=O)[C@@H](NC(=O)[C@H](CCC(N)=O)NC(=O)[C@H](CO)NC(=O)[C@H](CCCCN)NC(=O)[C@H](CCC(=O)O)NC(=O)[C@H](CO)NC(=O)[C@@H](NC(=O)[C@H](CCSC)NC(=O)[C@H](Cc1ccccc1)NC(=O)CNC(=O)CNC(=O)[C@@H](N)Cc1ccc(O)cc1)[C@@H](C)O)[C@@H](C)O)C(C)C)[C@@H](C)O)C(=O)N[C@H](C(=O)N[C@@H](CCCCN)C(=O)N[C@@H](CC(N)=O)C(=O)N[C@@H](C)C(=O)N[C@@H](Cc1ccc(O)cc1)C(=O)N[C@@H](CCCCN)C(=O)N[C@@H](CCCCN)C(=O)NCC(=O)N[C@@H](CCC(=O)O)C(=O)O)[C@@H](C)CC [β-endorphin]
- Efficiency of the first cleavage in the peptide, Trypsin-1 [1, 8]: +++ (ultrafast processing within 2 min)
- Incubation time at which the first cleavage or decrease of the full-length peptide was observed, trypsin-1 [1, 9]: 2 min
- Efficiency of the first cleavage in the peptide, Trypsin-2 [2, 8]: +++ (ultrafast processing within 2 min)
- Incubation time at which the first cleavage or decrease of the full-length peptide was observed, trypsin-2 [2, 9]: 2 min
- Efficiency of the first cleavage in the peptide, Trypsin-3 [3, 8]: −
- Incubation time at which the first cleavage or decrease of the full-length peptide was observed, trypsin-3 [3, 9]: > 30 min
- Efficiency of the first cleavage in the peptide, Thrombin [4, 8]: −
- Incubation time at which the first cleavage or decrease of the full-length peptide was observed, thrombin [4, 9]: > 30 min
- Efficiency of the first cleavage in the peptide, Cathepsin G [5, 8]: +++ (ultrafast processing within 2 min)
- Incubation time at which the first cleavage or decrease of the full-length peptide was observed, cathepsin G [5, 9]: 2 min
- Efficiency of the first cleavage in the peptide, Neutrophil Elastase [6, 8]: +++ (ultrafast processing within 2 min)
- Incubation time at which the first cleavage or decrease of the full-length peptide was observed, neutrophil elastase [6, 9]: 2 min
- Efficiency of the first cleavage in the peptide, Pancreatic Elastase [7, 8]: +++ (ultrafast processing within 2 min)
- Incubation time at which the first cleavage or decrease of the full-length peptide was observed, pancreatic elastase [7, 9]: 2 min
